The results in this text go back to ChEMBL document CHEMBL1201862, “PubChem BioAssay data set” (2004).

Structures are written as SMILES. Active and inactive are the calls of the source.

Experiment [1] deals with T1, Leucine aminopeptidase (Plasmodium falciparum 3D7, UniProt Q8IL11).
T1 sequence (Q8IL11 whole entry): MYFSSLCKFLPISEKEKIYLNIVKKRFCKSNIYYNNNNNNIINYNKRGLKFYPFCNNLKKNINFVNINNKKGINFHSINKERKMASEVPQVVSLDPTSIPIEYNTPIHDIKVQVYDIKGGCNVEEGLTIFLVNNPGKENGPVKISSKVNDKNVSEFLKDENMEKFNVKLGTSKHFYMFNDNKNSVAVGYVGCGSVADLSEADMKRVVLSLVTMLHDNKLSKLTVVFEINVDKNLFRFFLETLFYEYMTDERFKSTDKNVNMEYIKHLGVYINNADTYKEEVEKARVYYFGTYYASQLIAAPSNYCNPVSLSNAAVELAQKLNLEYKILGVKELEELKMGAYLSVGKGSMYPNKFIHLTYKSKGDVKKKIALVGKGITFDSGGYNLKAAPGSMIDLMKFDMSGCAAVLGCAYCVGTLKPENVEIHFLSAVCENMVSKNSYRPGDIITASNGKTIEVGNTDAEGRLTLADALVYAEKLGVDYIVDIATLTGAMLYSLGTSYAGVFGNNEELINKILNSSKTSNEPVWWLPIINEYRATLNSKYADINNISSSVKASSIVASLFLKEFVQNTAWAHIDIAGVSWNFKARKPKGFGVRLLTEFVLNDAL
Put plainly: P. falciparum M17LAP inhibitors, primary screen, biochemical, fluorogenic H-Leu-NHMec substrate, 1536-well (AID 1619). The class given is functional.

Experiment [2] concerns the target T2, Histone-lysine N-methyltransferase NSD2 (Homo sapiens, UniProt O96028).
T2 sequence (O96028 whole entry): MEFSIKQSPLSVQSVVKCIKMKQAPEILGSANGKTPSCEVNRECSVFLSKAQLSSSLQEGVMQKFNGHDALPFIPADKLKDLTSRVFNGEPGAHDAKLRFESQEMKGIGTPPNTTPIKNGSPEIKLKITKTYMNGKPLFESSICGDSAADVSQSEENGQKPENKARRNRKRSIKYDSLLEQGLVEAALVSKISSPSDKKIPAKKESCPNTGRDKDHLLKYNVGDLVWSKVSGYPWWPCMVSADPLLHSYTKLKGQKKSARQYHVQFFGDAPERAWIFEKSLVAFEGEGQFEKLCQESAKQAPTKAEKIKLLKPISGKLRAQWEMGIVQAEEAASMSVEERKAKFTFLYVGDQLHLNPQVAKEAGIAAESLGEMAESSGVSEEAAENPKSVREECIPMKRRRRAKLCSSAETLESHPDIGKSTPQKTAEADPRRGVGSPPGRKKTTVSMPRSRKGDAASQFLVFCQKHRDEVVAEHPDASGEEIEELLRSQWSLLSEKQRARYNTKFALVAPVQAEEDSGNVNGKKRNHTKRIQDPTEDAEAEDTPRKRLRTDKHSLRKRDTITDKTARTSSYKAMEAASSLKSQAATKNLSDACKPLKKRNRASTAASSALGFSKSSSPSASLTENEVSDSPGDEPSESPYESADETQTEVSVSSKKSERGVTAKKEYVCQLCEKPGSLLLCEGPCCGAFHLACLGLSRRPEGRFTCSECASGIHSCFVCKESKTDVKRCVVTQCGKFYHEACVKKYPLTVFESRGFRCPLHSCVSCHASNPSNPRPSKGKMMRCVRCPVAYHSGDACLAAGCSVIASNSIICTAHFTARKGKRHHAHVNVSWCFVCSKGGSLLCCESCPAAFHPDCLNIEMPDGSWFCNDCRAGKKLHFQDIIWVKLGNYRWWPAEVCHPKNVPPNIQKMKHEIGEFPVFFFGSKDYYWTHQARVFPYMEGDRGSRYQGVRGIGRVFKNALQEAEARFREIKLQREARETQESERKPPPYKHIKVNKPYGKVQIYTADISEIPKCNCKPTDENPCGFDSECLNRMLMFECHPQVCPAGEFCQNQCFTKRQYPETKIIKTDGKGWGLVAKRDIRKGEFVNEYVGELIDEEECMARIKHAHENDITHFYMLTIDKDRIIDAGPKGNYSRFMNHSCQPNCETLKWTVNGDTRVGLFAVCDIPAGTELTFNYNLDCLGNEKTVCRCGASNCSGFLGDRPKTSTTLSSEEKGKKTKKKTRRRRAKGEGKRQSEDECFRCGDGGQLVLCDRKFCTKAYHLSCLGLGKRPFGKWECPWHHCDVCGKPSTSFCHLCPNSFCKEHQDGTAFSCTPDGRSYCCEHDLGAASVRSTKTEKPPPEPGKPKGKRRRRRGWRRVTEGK
Format: biochemical.

Experiment [3] deals with T3, Carboxy-terminal domain RNA polymerase II polypeptide A small phosphatase 1 (Homo sapiens, UniProt Q9GZU7).
T3 sequence (Q9GZU7 whole entry): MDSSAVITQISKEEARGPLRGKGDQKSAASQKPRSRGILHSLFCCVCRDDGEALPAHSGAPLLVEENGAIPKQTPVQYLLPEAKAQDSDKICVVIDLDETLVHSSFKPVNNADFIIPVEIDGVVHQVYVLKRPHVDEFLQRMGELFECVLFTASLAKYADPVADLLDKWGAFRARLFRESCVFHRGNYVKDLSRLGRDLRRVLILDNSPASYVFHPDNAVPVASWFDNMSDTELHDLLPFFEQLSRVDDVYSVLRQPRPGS
Put plainly: CTDSP1 inhibitors, concentration-response, biochemical, absorbance readout, ultra-high-throughput screen actives (AID 540297). The class given is functional.

The target of experiment [4] is T4, Zinc finger protein mex-5 (Caenorhabditis elegans, UniProt Q9XUB2).
T4 sequence (Q9XUB2 whole entry): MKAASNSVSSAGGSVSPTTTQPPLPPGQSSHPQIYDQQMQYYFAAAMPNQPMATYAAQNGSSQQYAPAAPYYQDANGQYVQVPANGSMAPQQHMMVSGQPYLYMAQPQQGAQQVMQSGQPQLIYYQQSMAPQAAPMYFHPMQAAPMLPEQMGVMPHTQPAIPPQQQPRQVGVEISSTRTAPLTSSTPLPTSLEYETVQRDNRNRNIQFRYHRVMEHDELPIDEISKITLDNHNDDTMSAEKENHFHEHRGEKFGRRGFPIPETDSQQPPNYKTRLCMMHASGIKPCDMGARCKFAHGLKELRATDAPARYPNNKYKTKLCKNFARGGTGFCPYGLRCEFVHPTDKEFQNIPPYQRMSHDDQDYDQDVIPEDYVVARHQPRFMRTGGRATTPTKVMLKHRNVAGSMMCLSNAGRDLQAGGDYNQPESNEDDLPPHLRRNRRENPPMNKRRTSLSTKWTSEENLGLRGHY
Put plainly: potency of MEX-5 RNA-binding blockers – biochemical, C. elegans, fluorescence polarization, dose response (AID 1960).

For experiment [5], the target named is T5, RNA-binding protein pos-1 (Caenorhabditis elegans, UniProt G5EF15).
T5 sequence (G5EF15 whole entry): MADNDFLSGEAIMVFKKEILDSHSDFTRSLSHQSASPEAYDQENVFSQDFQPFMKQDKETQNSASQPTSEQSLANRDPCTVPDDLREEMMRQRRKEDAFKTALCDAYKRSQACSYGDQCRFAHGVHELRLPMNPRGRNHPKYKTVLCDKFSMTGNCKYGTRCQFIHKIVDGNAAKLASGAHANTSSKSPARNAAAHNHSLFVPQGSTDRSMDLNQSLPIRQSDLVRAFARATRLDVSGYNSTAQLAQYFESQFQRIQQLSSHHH
Put plainly: disruptors of C. elegans POS-1 RNA interaction – biochemical, fluorescence polarization, dose response (AID 1964).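 Note: purified POS-1 fused to maltose binding protein made in E. coli; potency of compounds blocking POS-1 binding to fluorescent RNA.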

Experiment [6] addresses Genome polyprotein (dengue virus type 2, UniProt P29990). Description: flavivirus cap methylation enzyme inhibition – biochemical, confirmation dose response, primary screen (AID 588689). The class given is functional.
Experiment [7] deals with Induced myeloid leukemia cell differentiation protein Mcl-1 (Homo sapiens, UniProt Q07820). Format: functional.
Induced myeloid leukemia cell differentiation protein Mcl-1, sequence (Q07820 whole entry): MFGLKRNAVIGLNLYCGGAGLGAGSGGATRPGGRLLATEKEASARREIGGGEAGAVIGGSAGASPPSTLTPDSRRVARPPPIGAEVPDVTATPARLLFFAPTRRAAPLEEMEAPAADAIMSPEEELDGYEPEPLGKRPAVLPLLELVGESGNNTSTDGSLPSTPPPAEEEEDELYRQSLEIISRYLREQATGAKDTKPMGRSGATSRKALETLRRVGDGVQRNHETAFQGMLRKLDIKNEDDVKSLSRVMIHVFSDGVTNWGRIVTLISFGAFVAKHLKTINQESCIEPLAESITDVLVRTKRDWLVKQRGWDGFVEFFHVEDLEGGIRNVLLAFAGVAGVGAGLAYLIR
Experiment [8] can be described thus: HPDE-C7 pancreatic duct cell viability loss – fluorescence, HTS (AID 430). The class given is functional, cell-based. The note with it: Homo sapiens.
The nature of experiment [9]: viability loss of HPDE-C7K cells – cell-based, fluorescence, HTS, primary screen (AID 431). The settings on record: Homo sapiens. Format: functional.
Experiment [10] can be described thus: microbe, parasite or virus in culture. Format: functional. The note with it: Mycobacterium tuberculosis.
A short description of experiment [11]: viability of PTEN-deleted HCT116 cells – cell-based, HCT116 PTEN knockout, dose response (AID 1047).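 Note: HCT116 colon tumor cells with PTEN knocked out; cells exposed to compound for 60 hours before readout; potency for loss of cell viability measured by luminescence.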 The class given is functional.
Experiment [12] can be described thus: viability of HCT116 lacking mutant beta-catenin – cell-based, human colon tumor, dose response (AID 1045).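 Note: HCT116 colon tumor cells with beta catenin knocked out; cells exposed to compound for 60 hours.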 The class given is functional.
For experiment [13], the target named is Nonstructural protein 1 (Influenza A virus, UniProt Q194T2). The class given is functional, Influenza A virus (A/California/07/2009(H1N1)).
Nonstructural protein 1, sequence (Q194T2 whole entry): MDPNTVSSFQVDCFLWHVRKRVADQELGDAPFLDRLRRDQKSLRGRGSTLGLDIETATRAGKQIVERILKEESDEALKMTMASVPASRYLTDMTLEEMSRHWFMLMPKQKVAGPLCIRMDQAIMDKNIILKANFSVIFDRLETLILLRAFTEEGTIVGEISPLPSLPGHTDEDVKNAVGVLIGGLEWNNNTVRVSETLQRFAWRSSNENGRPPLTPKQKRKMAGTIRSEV
Experiment [14] concerns the target Heat shock protein HSP 90-alpha (Homo sapiens, UniProt P07900). Format: functional, organism-based.
The nature of experiment [15]: Luminescence Cell-Based Dose Confirmation HTS to Identify Inhibitors of Platelet Dense Granule Release. [Related pubchem assays: 1663 (Primary HTS), 1678 (Summary of Project)]. The class given is functional.
For experiment [16], the system named is INS1. Description: INS-1E survival protection against cytokine death – cell-based, luminescence, retest, dose response (AID 449756).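 Note: cell death triggered by IL-1 beta plus TNF-alpha plus IFN-gamma mixture; protective hits raise ATP signal compared with cytokine alone wells.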 The class given is functional. The note with it: Rattus norvegicus.
In experiment [17] the target is Luciferin 4-monooxygenase (Photinus pyralis, UniProt P08659). Description: inhibition of purified Photinus pyralis luciferase – biochemical, luminescence, dose response (AID 1891).
Luciferin 4-monooxygenase, sequence (P08659 whole entry): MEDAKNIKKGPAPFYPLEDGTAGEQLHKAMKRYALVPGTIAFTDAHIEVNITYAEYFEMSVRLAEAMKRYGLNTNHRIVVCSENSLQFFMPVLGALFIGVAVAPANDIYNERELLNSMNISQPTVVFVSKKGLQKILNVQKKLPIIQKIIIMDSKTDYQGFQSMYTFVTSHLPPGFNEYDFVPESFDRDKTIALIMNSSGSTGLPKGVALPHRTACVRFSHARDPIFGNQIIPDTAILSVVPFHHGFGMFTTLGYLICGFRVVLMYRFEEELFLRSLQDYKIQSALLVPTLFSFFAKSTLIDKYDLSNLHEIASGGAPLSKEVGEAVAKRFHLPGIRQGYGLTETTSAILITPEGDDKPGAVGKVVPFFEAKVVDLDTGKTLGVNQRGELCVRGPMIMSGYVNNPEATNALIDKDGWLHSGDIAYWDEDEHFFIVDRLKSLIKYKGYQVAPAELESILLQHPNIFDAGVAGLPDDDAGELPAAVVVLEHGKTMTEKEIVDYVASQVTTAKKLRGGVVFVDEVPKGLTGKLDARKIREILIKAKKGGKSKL
A short description of experiment [18]: NIH3T3 cell viability loss – ATP luminescence, mouse fibroblasts, counter-screen, dose response (AID 2010).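 Note: cells exposed to compound for about 90 hours before reading.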 The class given is functional, cell-based.
For experiment [19], the system named is Streptococcus. Description: GAS UMAA2166 growth inhibition – luminescence, BacTiterGlo, counter-screen for streptokinase expression inhibitor project, dose response (AID 1915).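 Note: potency for reduction of bacterial viability or growth.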 The class given is functional, organism-based.
Experiment [20] can be described thus: luciferase reporter signal suppression in cells – H4 neuroglioma cells, luminescence, dose response (AID 1990). The class given is functional, cell-based.
The subject of experiment [21] is Streptococcus sp. 'group A'. Put plainly: Streptococcus pyogenes SK(-)GAS viability under kanamycin – luminescence, BacTiterGlo, confirmation, counter-screen for streptokinase expression inhibitor project, dose response (AID 1900). The class given is functional, organism-based.
Experiment [22] is described as follows: Luminescence Cell-Based Dose Response HTS to Identify Inhibitors of 5'UTR Stem-Loop Driven Prion Protein mRNA Translation in H4 Neuroglioblastoma Cells. [Related pubchem assays: 1827 (Project Summary), 1813 (Primary HTS)]. The class given is functional.
A short description of experiment [23]: alpha-synuclein stem-loop luciferase translation blockers – H4 neuroglioma cells, luminescence, confirmation (AID 1988). Format: functional, cell-based.
The nature of experiment [24]: Trypanosoma cruzi growth suppression in host cells – NIH3T3 host cells, beta-gal luminescence, confirmation (AID 2044).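 Note: intracellular parasites grown in NIH/3T3 mouse fibroblasts as host cells; luminescent beta-galactosidase reporter signal from transgenic T. cruzi replicating inside host cells; inhibitors lower the luminescence signal.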 The class given is functional, cell-based.

Genome polyprotein, sequence (P29990 2492-3391 limits assumed): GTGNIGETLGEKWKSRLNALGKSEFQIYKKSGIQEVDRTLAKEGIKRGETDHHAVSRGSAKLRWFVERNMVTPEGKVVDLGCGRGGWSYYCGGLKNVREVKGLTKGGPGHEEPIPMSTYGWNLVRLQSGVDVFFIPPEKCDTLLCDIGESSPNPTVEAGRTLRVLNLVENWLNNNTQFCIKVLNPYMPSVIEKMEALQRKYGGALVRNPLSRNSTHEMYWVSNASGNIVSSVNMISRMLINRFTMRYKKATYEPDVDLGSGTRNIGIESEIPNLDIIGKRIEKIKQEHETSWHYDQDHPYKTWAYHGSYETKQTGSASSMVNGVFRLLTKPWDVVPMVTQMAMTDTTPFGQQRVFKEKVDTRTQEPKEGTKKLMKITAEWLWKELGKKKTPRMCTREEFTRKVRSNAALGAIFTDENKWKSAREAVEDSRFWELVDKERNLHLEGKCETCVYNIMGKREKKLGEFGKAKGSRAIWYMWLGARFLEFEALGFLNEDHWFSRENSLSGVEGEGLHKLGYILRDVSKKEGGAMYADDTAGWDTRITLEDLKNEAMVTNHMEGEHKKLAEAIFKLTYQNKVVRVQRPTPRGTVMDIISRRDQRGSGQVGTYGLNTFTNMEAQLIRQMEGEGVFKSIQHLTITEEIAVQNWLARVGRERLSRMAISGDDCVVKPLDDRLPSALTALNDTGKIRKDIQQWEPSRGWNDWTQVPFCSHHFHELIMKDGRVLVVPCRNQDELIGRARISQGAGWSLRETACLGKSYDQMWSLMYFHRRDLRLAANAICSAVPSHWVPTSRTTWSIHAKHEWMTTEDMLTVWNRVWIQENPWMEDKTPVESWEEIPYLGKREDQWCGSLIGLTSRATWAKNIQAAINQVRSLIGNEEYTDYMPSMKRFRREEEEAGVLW

With `Cc1cc(/C=C(/C#N)c2nc3ccccc3[nH]2)c(C)n1-c1cc(C(=O)O)cc(C(=O)O)c1`, the figures for the concentration for half-maximal inhibition (IC50) in experiment [1] and in experiment [3] were 42.6 µM (active) and 5.68 µM (active), respectively. Besides, the AC50 in experiment [2] was > 20 µM (inactive). For the same compound, the values for the EC50 in [4] and in experiment [5] were 41.4 µM (active) and 59.3 µM (active), respectively.

As for `COc1ccccc1/C=C1\SC(=S)N(NS(=O)(=O)c2ccc(C)cc2)C1=O`, in experiment [6], the 50% inhibitory concentration (IC50) was 34.7 µM (active).

In the case of `O=C(COC(=O)c1cc(-c2ccco2)nc2ccccc12)NCc1ccc2c(c1)OCO2`, the half-inhibitory concentration (IC50) in experiment [7] was < 0.4 µM (active).

`O=C(O)CN1C(=O)/C(=C\c2cccc(OCc3ccc(F)cc3)c2)SC1=S`: the half-maximal inhibitory concentration (IC50) in experiment [6] was 42.6 µM (active).

Turning to `Cc1ccc2c(c1)c1ncnc(N3CCc4ccccc4C3)c1n2C`, the results for the EC50 in [8] and in experiment [9] were 11.4 µM (active) and 11.7 µM (active), respectively. In addition, in [10], the CC50 was > 40 µM (active).

On to `CC(C)(C)OC(=O)N[C@@H](Cc1ccccc1)c1nnc(S(=O)(=O)Cc2ccccc2)o1`, for which the EC50 in [8] is 16.9 µM (active); in experiment [9], > 20 µM (not active).

Consider `O=C1CC2CCCN2C=C1I` (stereo unspecified), for which the IC50 in experiment [3] was 5.48 µM (active); in [6], 62.7 µM (active).

`O=C1NC(=O)C(=Cc2ccccc2[N+](=O)[O-])C(=O)N1`: the half-maximal inhibitory concentration (IC50) in [6] is 27.3 µM (active).

Turning to `CN1c2ccccc2C(C)(C)C12C=Cc1cc(O)ccc1O2` (stereo unspecified), the EC50 in experiment [8] was 15.2 µM (active); in experiment [11] it was 36.4 µM (active); in experiment [12], 18.4 µM (active); in experiment [9], > 20 µM (not active).

Regarding `O=C(Cn1nc(C(=O)O)c2ccccc2c1=O)Nc1ccc2c(c1)C(=O)c1ccccc1C2=O`, in experiment [7], the IC50 is 4.02 µM (active).

For `Cc1cc(NC(=O)CSc2nnc(-c3ccco3)o2)no1`, in experiment [13], the IC50 was 32.4 µM (active).

Consider `Cc1cc(C)c(S(=O)(=O)NCC23C=CC(O2)C2C(=O)N(c4ccccc4)C(=O)C23)c(C)c1` (stereo unspecified), for which the AC50 in experiment [14] was 10.1 µM (active).

On to `Oc1nccc(N/N=C/c2ccccc2O)n1`, for which the half-maximal effective concentration (EC50) was 4.11 µM (active) in experiment [15] and 36.3 µM (active) in [17]. In addition, the IC50 in experiment [13] was 10.3 µM (active). Besides, in [16], the half-maximal activity concentration (AC50) was 0.625 µM (active).

On to `COC(=O)c1ccc(N2C(=O)CC(N(C)Cc3ccccc3)C2=O)cc1` (stereo unspecified), for which the AC50 in experiment [14] is 7.7 µM (active).

Take `Oc1ccc(CN2CCN(c3ccccc3)CC2)c2cccnc12`: the concentration giving a half-maximal response (EC50) in experiment [18] is > 60 µM (not active); in experiment [19], 7.49 µM (active); in experiment [20] it was 11.9 µM (active); in [21], 5.48 µM (active); in experiment [22], 9.95 µM (active); in experiment [23] it was 9.72 µM (active). For the same compound, the half-maximal effective concentration (EC50) in experiment [24] was 1.86 µM (active). Further, the 50% inhibitory concentration (IC50) in [13] was 59.1 µM (active).
